Experimental findings from BindingDB's records for doi:10.1021/jm801176e (Nci-Frederick, 2009) are described below.

Assay [1] is described as follows: Inhibition of HIV1 wild type reverse transcriptase-mediated viral DNA synthesis in human HOS cells assessed as luciferase activity treated 3 hrs before infection measured after 48 hrs by luminescence assay.
Assay [2] can be described thus: Inhibition of HIV1 wild type reverse transcriptase-mediated viral DNA synthesis in human HOS-313 cells expressing HSV thymidine kinase assessed as luciferase activity treated 3 hrs before infection measured after 48 hrs by luminescence assay.
The nature of assay [3]: Inhibition of HIV1 reverse transcriptase M184V mutant-mediated viral DNA synthesis in human HOS cells assessed as luciferase activity treated 3 hrs before infection measured after 48 hrs by luminescence assay.
Assay [4] is described as follows: Inhibition of HIV1 reverse transcriptase M184V mutant-mediated viral DNA synthesis in human HOS-313 cells expressing HSV thymidine kinase assessed as luciferase activity treated 3 hrs before infection measured after 48 hrs by luminescence assay.

`Cc1cccc2c1OP(=O)(OC[C@H]1C[C@@H](n3cc(C)c(=O)[nH]c3=O)C[C@@H]1O)OC2` (stereo not given in full): the IC50 in assay [1] stood at 380 nM; in assay [2], 120 nM.

With `Cc1cn([C@@H]2C[C@H](CO)[C@@H](O)C2)c(=O)[nH]c1=O`, the figures for the IC50 in assay [1], in assay [3] and in assay [4] were 3200 nM, 1800 nM and 190 nM, respectively.
